# Reference: US11420970B1 (NOVARTIS AG, priority 2019, dated 2022)
# Molecular target: NSD2 [1-1365] (Homo sapiens (Human), UniProt O96028)
# Test: LC-MS/MS-based NSD2 enzymatic assay (SAH production)
# Assay type: biochemical
# Settings: NSD2 biochemical activity, class symbols; read-out: NSD2 IC50
# Experimental: LC-MS/MS-Based NSD2 Enzymatic Assay
# This assay employed LC-MS/MS technology to monitor the SAH production from the NSD2 enzymatic reaction. The enzymatic reaction was performed in white proxiplate plus 384-well microplate (Perkin Elmer). The reaction mixture (10 μL) were composed of 8 nM NSD2 [1-1365], […] SAM (USB, 10601) and 400 nM nucleosome (purified from mouse liver) in reaction buffer (20 mM Tris-HCl, pH at 8.0, 0.01% Tween 20, 10 mM MgCl2, 50 mM NaCl, 1 mM DTT, 1 mM TCEP (pH7.5)). After 90 min incubation at room temperature, 3 μL quenching solution containing 2.5% TFA with 320 nM d4-SAH was added to stop the reaction.
# For the inhibition assay, compound solutions were transferred into the wells by Mosquito™ (TTP LabTech). The inhibition assays were carried out by preincubating various concentrations of the inhibitor with 5 uL reaction mixture containing 16 nM NSD2 [1-1365] and 2 uM SAM (USB, 10601) in reaction buffer. After 20 min preincubation, 5 uL solution containing 800 nM nucleosome (purified from mouse liver) in reaction buffer was added to initiate the reaction. The reaction was stopped by 3 μL quenching solution containing 2.5% TFA with 320 nM d4-SAH after 90 min.
# The SAH production from the enzymatic assays were monitored by LC-MS/MS on an API 4000 triple quadrupole mass spec with Turbolon Spray (Applied Biosystem) coupled with Prominenece UFLC(Shimazu). Liquid chromatography was performed on a Chromolith FastGradient HPLC column (RP-18e, 25-2 mm, from Merck) at a flow rate of 0.8 ml/min. The column was connected directly to the turbo ion electrospray operating in the positive-ion mode. Mobile phase A is 0.1% FA and 2% methanol in water and mobile phase B is 0.1% FA in ACN. Injection volume was 3 μl and the autosampler was kept at 4 degree. SAH and d4-SAH were simultaneously monitored. Data were acquired and processed by Analyst software.
# To quantify the formed SAH, d4-SAH was added as internal standard (IS). A series of SAH (Sigma, A9384) solution at varying concentration (1-500 nM in reaction buffer) was mixed with quenching solution mentioned above. Then LC-MS/MS was carried out on API 4000 LC/MS/MS system to detect both SAH and d4-SAH. The plot of SAH peak area/IS peak area vs SAH concentration was used to generate the normalization factor of SAH. The SAH production from real enzymatic reaction was derived from the standard curve of SAH. The down-limit of our system for the detection of SAH is around 1-2 nM, and the linear range can reach up to 500 nM.
# NSD2 [1-1365], sequence (O96028 whole entry): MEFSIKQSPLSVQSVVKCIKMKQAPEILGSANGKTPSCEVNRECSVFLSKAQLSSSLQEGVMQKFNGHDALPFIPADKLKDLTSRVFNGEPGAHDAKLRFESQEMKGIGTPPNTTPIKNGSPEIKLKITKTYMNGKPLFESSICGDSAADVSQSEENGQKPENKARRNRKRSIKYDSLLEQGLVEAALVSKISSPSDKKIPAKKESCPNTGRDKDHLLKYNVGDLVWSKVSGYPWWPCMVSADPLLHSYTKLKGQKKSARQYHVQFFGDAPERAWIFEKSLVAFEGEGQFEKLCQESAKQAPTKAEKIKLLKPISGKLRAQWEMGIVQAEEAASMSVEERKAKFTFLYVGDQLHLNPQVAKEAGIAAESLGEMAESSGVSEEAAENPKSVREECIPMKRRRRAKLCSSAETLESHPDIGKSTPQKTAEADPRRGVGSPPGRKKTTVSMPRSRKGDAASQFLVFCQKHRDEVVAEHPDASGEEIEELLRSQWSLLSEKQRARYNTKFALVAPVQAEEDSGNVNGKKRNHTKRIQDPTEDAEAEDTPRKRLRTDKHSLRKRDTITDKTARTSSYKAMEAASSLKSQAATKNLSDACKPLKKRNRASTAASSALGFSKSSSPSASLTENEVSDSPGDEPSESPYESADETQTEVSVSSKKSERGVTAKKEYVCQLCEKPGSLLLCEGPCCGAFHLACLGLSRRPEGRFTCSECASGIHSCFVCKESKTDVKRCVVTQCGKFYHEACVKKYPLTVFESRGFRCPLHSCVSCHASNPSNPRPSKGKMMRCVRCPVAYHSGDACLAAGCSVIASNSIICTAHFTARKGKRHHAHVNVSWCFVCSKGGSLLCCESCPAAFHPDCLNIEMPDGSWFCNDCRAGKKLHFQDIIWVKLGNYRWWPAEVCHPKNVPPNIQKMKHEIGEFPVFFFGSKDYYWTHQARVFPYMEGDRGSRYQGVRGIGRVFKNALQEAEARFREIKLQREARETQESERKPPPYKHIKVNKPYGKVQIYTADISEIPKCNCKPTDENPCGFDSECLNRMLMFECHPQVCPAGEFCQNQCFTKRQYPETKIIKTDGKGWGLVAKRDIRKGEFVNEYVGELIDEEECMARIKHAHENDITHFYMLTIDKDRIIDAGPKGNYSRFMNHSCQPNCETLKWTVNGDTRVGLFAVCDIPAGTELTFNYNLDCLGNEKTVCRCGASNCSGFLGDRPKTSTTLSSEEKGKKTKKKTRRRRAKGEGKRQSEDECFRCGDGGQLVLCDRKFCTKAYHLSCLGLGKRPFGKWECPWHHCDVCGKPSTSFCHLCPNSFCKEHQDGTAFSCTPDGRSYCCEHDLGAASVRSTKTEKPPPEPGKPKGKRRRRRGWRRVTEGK
row,IC50 [µM],SMILES
1,> 1,"N#CC1CCN(c2cnc(-c3ccc(F)c(F)c3)cc2Cn2cnc3c(N)ncnc32)CC1N (stereo not shown) [Example 18, 3-amino-1-(4-((6-amino-9H-purin-9-yl)methyl)-6-(3,4-difluorophenyl)pyridin-3-yl)piperidine-4-carbonitrile]"
2,0.01 to 1,"COC(=O)C[C@@]1(N)CCCN(c2cnc(-c3cccc(F)c3)cc2Cn2cnc3c(N)ncnc32)C1 [Example 73, methyl (S)-2-(3-amino-1-(4-((6-amino-9H-purin-9-yl)methyl)-6-(3-fluorophenyl)pyridin-3-yl)piperidin-3-yl)acetate]"
3,0.01 to 1,"COc1ccc(-c2ncc(N3CCC[C@](N)([C@H](O)C(F)F)C3)c(Cn3cnc4c(N)ncnc43)c2F)c(F)c1 [Example 135, (S)-1-((R)-3-amino-1-(4-((6-amino-9H-purin-9-yl)methyl)-5-fluoro-6-(2-fluoro-4-methoxyphenyl)pyridin-3-yl)piperidin-3-yl)-2,2-difluoroethan-1-ol]"
4,0.01 to 1,"NC(=O)C[C@@]1(N)CCCN(c2cnc(-c3ccc(F)c(F)c3)cc2Cn2cnc3c(N)ncnc32)C1 [Example 62, (S)-2-(3-amino-1-(4-((6-amino-9H-purin-9-yl)methyl)-6-(3,4-difluorophenyl)pyridin-3-yl)piperidin-3-yl)acetamide]"
5,0.01 to 1,"Nc1ncnc2c1ncn2Cc1cc(-c2ccc(C(F)F)cc2F)ncc1N1CCC[C@](N)([C@H](O)C(F)F)C1 [Example 137, (S)-1-((R)-3-amino-1-(4-((6-amino-9H-purin-9-yl)methyl)-6-(4-(difluoromethyl)-2-fluorophenyl)pyridin-3-yl)piperidin-3-yl)-2,2-difluoroethan-1-ol]"
6,0.01 to 1,"COc1cc(F)c(-c2ncc(N3CCC[C@](N)([C@H](O)C(F)F)C3)c(Cn3cnc4c(N)ncnc43)c2F)cc1F [Example 149, (S)-1-((R)-3-amino-1-(4-((6-amino-9H-purin-9-yl)methyl)-6-(2,5-difluoro-4-methoxyphenyl)-5-fluoropyridin-3-yl)piperidin-3-yl)-2,2-difluoroethan-1-ol]"
7,> 1,"Nc1ncnc2c1ncn2Cc1cc(-c2ccc(F)c(F)c2)ncc1N1CCCC(N)(C(=O)C2CCOC2)C1 (stereo not shown) [Example 111, (3-amino-1-(4-((6-amino-9H-purin-9-yl)methyl)-6-(3,4-difluorophenyl)pyridin-3-yl)piperidin-3-yl)(tetrahydrofuran-3-yl)methanone]"
8,0.01 to 1,"Nc1ncnc2c1ncn2Cc1cc(-c2ccc(F)c(F)c2)ncc1N1CCC[C@](N)(C(=O)N2CCCC2)C1 [Example 84, (R)-(3-amino-1-(4-((6-amino-9H-purin-9-yl)methyl)-6-(3,4-difluorophenyl)pyridin-3-yl)piperidin-3-yl)(pyrrolidin-1-yl)methanone]"
9,0.001 to 0.01,"COc1ccc(-c2cc(Cn3cnc4c(N)ncnc43)c(N3CCC[C@](N)(COC4CC4)C3)cn2)cc1F [Example 31, (R)-9-((5-(3-amino-3-(cyclopropoxymethyl)piperidin-1-yl)-2-(3-fluoro-4-methoxyphenyl)pyridin-4-yl)methyl)-9H-purin-6-amine]"

# Same assay, conditions: read-out: NSD2 IC50
row,IC50 [µM],SMILES
1,0.01 to 1,"CCn1ccc([C@@]2(N)CCCN(c3cnc(C4CC4)cc3Cn3cnc4c(N)nccc43)C2)n1 [Example 276, (R)-1-((5-(3-amino-3-(1-ethyl-1H-pyrazo1-3-yl)piperidin-1-yl)-2-cyclopropylpyridin-4-yl)methyl)-1H-imidazo[4,5-c]pyridin-4-amine]"
2,0.01 to 1,"Nc1ncnc2c1ncn2Cc1cc(-c2ccc3ccnn3c2)ncc1N1CCCC(N)(c2cccc(Cl)n2)C1 (stereo not shown) [Example 222, 9-((5-(3-amino-3-(6-chloropyridin-2-yl)piperidin-1-yl)-2-(pyrazolo[1,5-a]pyridin-6-yl)pyridin-4-yl)methyl)-9H-purin-6-amine]"
3,> 1,"Nc1ncnc2c1ncn2Cc1cc(-c2ccc(F)c(F)c2)ncc1N1CCC[C@@H](N)[C@H]1[C@@H](O)C(F)(F)F [Example 316, (R)-1-((2S,3R)-3-amino-1-(4-((6-amino-9H-purin-9-yl)methyl)-6-(3,4-difluorophenyl)pyridin-3-yl)piperidin-2-yl)-2,2,2-trifluoroethan-1-ol]"
4,0.01 to 1,"Nc1ncnc2c1ncn2Cc1cc(-c2ccc(F)c(F)c2)ncc1N1C[C@H](N)C[C@H](F)C1 [Example 309, 9-((5-((3R,5S)-3-amino-5-fluoropiperidin-1-yl)-2-(3,4-difluorophenyl)pyridin-4-yl)methyl)-9H-purin-6-amine]"
5,0.01 to 1,"COc1ccc(-c2cc(Cn3cnc4c(N)ncnc43)c(N3CCC[C@](N)(c4ccc(F)c(C)n4)C3)cn2)cc1F [Example 207, (R)-9-((5-(3-amino-3-(5-fluoro-6-methylpyridin-2-yl)piperidin-1-yl)-2-(3-fluoro-4-methoxyphenyl)pyridin-4-yl)methyl)-9H-purin-6-amine]"
6,0.01 to 1,"Nc1ncnc2c1ncn2Cc1cc(-c2ccc(F)c(F)c2)ncc1N1CCC[C@]2(COC(=O)N2)C1 [Example 292, (R)-7-(4-((6-amino-9H-purin-9-yl)methyl)-6-(3,4-difluorophenyl)pyridin-3-yl)-3-oxa-1,7-diazaspiro[4.5]decan-2-one]"
7,0.01 to 1,"Nc1ncnc2c1ncn2Cc1cc(-c2ccc(F)c(F)c2)ncc1N1CCC[C@@H](N)[C@H]1CCO [Example 314, 2-((2R,3R)-3-amino-1-(4-((6-amino-9H-purin-9-yl)methyl)-6-(3,4-difluorophenyl)pyridin-3-yl)piperidin-2-yl)ethan-1-ol]"
8,> 1,"C[C@@H]1CN(c2cnc(-c3ccc(F)cc3)cc2Cn2cnc3c(N)ncnc32)C[C@@](N)(CC(F)F)C1 [Example 307, 9-((5-((3S,5S)-3-amino-3-(2,2-difluoroethyl)-5-methylpiperidin-1-yl)-2-(4-fluorophenyl)pyridin-4-yl)methyl)-9H-purin-6-amine]"
9,0.01 to 1,"Nc1ncnc2c1ncn2Cc1cc(-c2ccc3nccn3c2)ncc1N1CCCC(N)(c2cccc(Cl)n2)C1 (stereo not shown) [Example 210, 9-((5-(3-amino-3-(6-chloropyridin-2-yl)piperidin-1-yl)-2-(imidazo[1,2-a]pyridin-6-yl)pyridin-4-yl)methyl)-9H-purin-6-amine]"
10,> 1,Nc1ncnc2c1ncn2Cc1cc(-c2ccc(F)c(F)c2)ncc1N1CCC[C@@H](N)[C@H]1C(=O)O [Example 319]
11,> 1,"CN(C)C(=O)[C@@H]1[C@H](N)CCCN1c1cnc(-c2ccc(F)c(F)c2)cc1Cn1cnc2c(N)ncnc21 [Example 317, (2S,3R)-3-amino-1-(4-((6-amino-9H-purin-9-yl)methyl)-6-(3,4-difluorophenyl)pyridin-3-yl)-N,N-dimethylpiperidine-2-carboxamide]"
12,> 1,"NC(=O)[C@@H]1[C@H](N)CCCN1c1cnc(-c2ccc(F)c(F)c2)cc1Cn1cnc2c(N)ncnc21 [Example 318, (2S,3R)-3-amino-1-(4-((6-amino-9H-purin-9-yl)methyl)-6-(3,4-difluorophenyl)pyridin-3-yl)piperidine-2-carboxamide]"
13,> 1,"Nc1ncnc2c1ncn2Cc1cc(-c2ccc(F)c(F)c2)ncc1N1CCC[C@@H](N)[C@H]1c1ccccc1 [Example 323, 9-((5-((2R,3R)-3-amino-2-phenylpiperidin-1-yl)-2-(3,4-difluorophenyl)pyridin-4-yl)methyl)-9H-purin-6-amine]"
